The record followed here is patent US6833456B2, “Indolyl-urea derivatives of thienopyridines useful as antiangiogenic agents, and methods for their use” (Agouron Pharmaceuticals, Inc., priority 2002, dated 2004).

In general, Ki refers to the equilibrium dissociation constant of an inhibitor or competing ligand from its target. High values mean lower affinity, low ones higher affinity. For orientation: inhibition means how much of the control response was suppressed. Lower therefore signals little suppression. As a reminder, the IC50 is the concentration that inhibits the measured activity by half. The AUC is concentration integrated over time.

One series in a line: Mouse PK assay. Type of series: in vivo, B6 female mice. The settings on record: po. The protocol:
The pharmacokinetics (e.g., absorption and elimination) of drugs in mice were analyzed using the following experiment. Test compounds were formulated as a suspension in a 30:70 (PEG 400: acidified H2O) vehicle. This solution was administered orally (p.o.) and intraperitoneally (i.p.) at 50 mg/kg to two distinct groups (n=4) of B6 female mice. Blood samples were collected via an orbital bleed at time points: 0 hour (pre-dose), 0.5 hr, 1.0 hr, 2.0 hr, and 4.0 hr post dose. Plasma was obtained from each sample by centrifugation at 2500 rpm for 5 min. Test compound was extracted from the plasma by an organic protein precipitation method. For each time bleed, 50 μL of plasma was combined with 1.0 mL of acetonitrile, vortexed for 2 min. and then spun at 4000 rpm for 15 min. to precipitate the protein and extract out the test compound. Next, the acetonitrile supernatant (the extract containing test compound) was poured into new test tubes and evaporated on a hot plate (25° C.) under a steam of N2 gas. To each tube containing the dried test compound extract, 125 μL of mobile phase (60:40, 0.025 M NH4H2PO4+2.5 mL/L TEA:acetonitrile) was added. The test compound was resuspended in the mobile phase by vortexing and more protein was removed by centrifugation at 4000 rpm for 5 min. Each sample was poured into an HPLC vial for test compound analysis on an Hewlett Packard 1100 series HPLC with UV detection. From each sample, 95 μL was injected onto a Phenomenex-Prodigy reverse phase C-18, 150×3.2 mm column and eluted with a 45-50% acetonitrile gradient run over 10 min. Test-compound plasma concentrations (μg/mL) were determined by a comparison to standard curve (peak area vs. conc. μg/mL) using known concentrations of test compound extracted from plasma samples in the manner described above. Along with the standards and unknowns, three groups (n=4) of quality controls (0.25 μg/mL, 1.5 μg/mL, and 7.5 μg/mL) were run to insure the consistency of the analysis. […] The quantitated test samples were plotted for visual display using Kaleidagraph software and their pharmacokinetic parameters were determined using WIN NONLIN software.

Series [1] addresses T1, unphosphorylated VEGF-R2Δ50 (FLVK) (Homo sapiens, UniProt P35968, DEL940-989/E990V).
T1 construct: VEGF-R2Δ50 contains residues 806-939 and 990-1171; made in house; host or cells: baculovirus/insect cell system
Briefly: VEGF-R2 coupled spectrophotometric assay, unphosphorylated construct (FLVK). Type of series: biochemical. Particulars: for inhibition at 0.05 µM: percent inhibition at 50 nM. From the text:
This construct determines the ability of a test compound to inhibit tyrosine kinase activity. A construct (VEGF-R2Δ50) of the cytosolic domain of human vascular endothelial growth factor receptor 2 (VEGF-R2) lacking the 50 central residues of the 68 residues of the kinase insert domain was expressed in a baculovirus/insect cell system. Of the 1356 residues of full-length VEGF-R2, VEGF-R2Δ50 contains residues 806-939 and 990-1171, and also one point mutation (E990V) within the kinase insert domain relative to wild-type VEGF-R2. Autophosphorylation of the purified construct was performed by incubation of the enzyme at a concentration of 4 μM in the presence of 3 mM ATP and 40 mM MgCl2 in 100 mM HEPES, pH 7.5, containing 5% glycerol and 5 mM DTT, at 4° C. for 2 h. […] See Parast et al., Biochemistry, 37, 16788-16801 (1998).
The production of ADP from ATP that accompanies phosphoryl transfer was coupled to oxidation of NADH using phosphoenolpyruvate (PEP) and a system having pyruvate kinase (PK) and lactic dehydrogenase (LDH). The oxidation of NADH was monitored by following the decrease of absorbance at 340 nm ([…]=6.22 cm^−1 mM^−1) using a Beckman DU 650 spectrophotometer. Assay conditions for phosphorylated VEGF-R2Δ50 (indicated as FLVK-P in the tables below) were the following: 1 mM PEP; 250 μM NADH; 50 units of LDH/mL; 20 units of PK/mL; 5 mM DTT; […]; 1 mM ATP; and 25 mM MgCl2 in 200 mM HEPES, pH 7.5. Assay conditions for unphosphorylated VEGF-R2Δ50 (indicated as FLVK in the tables) were the following: 1 mM PEP; 250 μM NADH; 50 units of LDH/mL; 20 units of PK/mL; 5 mM DTT; […]; 3 mM ATP; and 60 mM MgCl2 and 2 mM MnCl2 in 200 mM HEPES, pH 7.5. Assays were initiated with 5 to 40 nM of enzyme. Ki values were determined by measuring enzyme activity in the presence of varying concentrations of test compounds. The percent inhibition at 50 nm (% inhibition@ 50 nm) was determined by linear least-squares regression analysis of absorbance as a function of time. The binding inhibitions were fitted to equation as described by Morrison. The data were analyzed using Enzyme Kinetic and Kaleidagraph software.

For another series, the target named is T2, PDGFRβ (Homo sapiens, UniProt P09619).
T2 construct: expressed in transfected cells; host or cells: porcine aorta endothelial (PAE) cells
The experiment in a line: PAE-PDGFRβ phosphorylation in PAE-PDGFRB cells assay. Particulars: PAE cells overexpressing human PDGFRβ, PDGF-BB stimulated; read-out: PAE PDGFR autophos IC50. Type of series: cell-based. The procedure:
This assay determines the ability of a test compound to inhibit the autophosphorylation of PDGFRβ in porcine aorta endothelial (PAE)-PDGFRβ cells. PAE cells that overexpress human PDGFRβ were used in this assay. The cells were cultured in Ham's F12 media supplemented with 10% fetal bovine serum (FBS) and 400 ug/ml G418. Twenty thousands cells were seeded in each well of a 96-well plate in 50 μL of growth media and allowed to attach for 6 hours at 37° C. Cells were then exposed to the starvation media (Ham's F12 media supplemented with 0.1% FBS) for 16 hours. After the starvation period was over, 10 μL of test agent in 5% DMSO in starvation media were added to the test wells and 10 μL of the vehicle (5% DMSO in starvation media) were added into the control wells. The final DMSO concentration in each well was 0.5%. Plates were incubated at 37° C. for 1 hour and the cells were then stimulated with 1 μg/mL PDGF-BB (R & D System) in the presence of 2 mM Na3VO4 for 8 minutes. The cells were washed once with 1 mm Na3VO4 in HBSS and lysed by adding 50 μL per well of lysis buffer. One hundred μL of dilution buffer were then added to each well and the diluted cell lysate was transferred to a 96-well goat ant-rabbit coated plate (Pierce), which was pre-coated with Rabbit anti Human PDGFRβ antibody (Santa Cruz). The plates were incubated at room temperature for 2 hours and washed seven times with 1% Tween 20 in PBS. HRP-PY20 (Santa Cruz) was diluted and added to the plate for a 30-minute incubation. Plates were then washed again and TMB peroxidase substrate (Kirkegaard & Perry) was added for a 10-minute incubation. One hundred μL of 0.09 N H2SO4 was added into each well of the 96-well plate to stop the reaction. Phosphorylation status was assessed by spectrophotometer reading at 450 nm. IC50 values were calculated by curve fitting using a four-parameter analysis.

T1 sequence (P35968 with tags, fused parts or gaps DEL940-989/E990V limits assumed): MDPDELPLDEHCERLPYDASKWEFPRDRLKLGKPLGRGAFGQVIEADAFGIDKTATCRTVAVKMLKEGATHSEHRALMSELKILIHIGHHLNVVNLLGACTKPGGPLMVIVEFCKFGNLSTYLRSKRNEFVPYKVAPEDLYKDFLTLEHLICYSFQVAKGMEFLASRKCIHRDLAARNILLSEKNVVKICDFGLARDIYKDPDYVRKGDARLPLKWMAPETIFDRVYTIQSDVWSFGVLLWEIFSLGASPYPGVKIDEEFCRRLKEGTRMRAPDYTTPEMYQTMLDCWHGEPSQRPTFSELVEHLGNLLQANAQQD
T2 sequence (P09619 33-1106): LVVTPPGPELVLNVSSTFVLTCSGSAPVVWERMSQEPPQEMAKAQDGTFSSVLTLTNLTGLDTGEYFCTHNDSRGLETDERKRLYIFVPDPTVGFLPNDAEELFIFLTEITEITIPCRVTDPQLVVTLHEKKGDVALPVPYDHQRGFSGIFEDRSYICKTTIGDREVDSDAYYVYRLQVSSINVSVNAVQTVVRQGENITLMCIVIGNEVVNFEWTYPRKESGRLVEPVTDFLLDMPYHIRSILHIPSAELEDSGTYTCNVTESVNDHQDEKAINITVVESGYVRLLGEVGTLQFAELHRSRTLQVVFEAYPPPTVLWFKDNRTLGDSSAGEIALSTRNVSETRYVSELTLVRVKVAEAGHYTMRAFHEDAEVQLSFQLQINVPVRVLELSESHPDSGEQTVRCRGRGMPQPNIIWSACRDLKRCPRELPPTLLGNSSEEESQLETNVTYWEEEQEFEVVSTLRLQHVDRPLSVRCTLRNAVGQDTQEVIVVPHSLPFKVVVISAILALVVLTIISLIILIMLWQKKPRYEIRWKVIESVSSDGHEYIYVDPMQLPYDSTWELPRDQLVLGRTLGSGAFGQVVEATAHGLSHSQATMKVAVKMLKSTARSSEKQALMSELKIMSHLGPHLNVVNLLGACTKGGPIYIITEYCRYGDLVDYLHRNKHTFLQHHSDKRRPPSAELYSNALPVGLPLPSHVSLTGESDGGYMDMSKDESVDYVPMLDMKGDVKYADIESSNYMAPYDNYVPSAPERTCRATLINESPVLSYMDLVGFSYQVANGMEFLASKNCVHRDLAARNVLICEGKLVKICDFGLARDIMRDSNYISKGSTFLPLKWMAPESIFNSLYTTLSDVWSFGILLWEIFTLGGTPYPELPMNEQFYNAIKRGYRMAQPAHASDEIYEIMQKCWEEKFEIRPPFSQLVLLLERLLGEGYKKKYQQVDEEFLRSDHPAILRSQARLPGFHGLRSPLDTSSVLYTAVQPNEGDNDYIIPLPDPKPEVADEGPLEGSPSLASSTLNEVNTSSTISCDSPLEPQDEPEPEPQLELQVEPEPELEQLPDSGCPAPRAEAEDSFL

For `C#CCNC(=O)n1c(C)cc2c(F)c(Oc3ccnc4cc(C(=O)N5CCC(O)C5)sc34)ccc21` (stereo in doubt) [Example 5k, 4-Fluoro-5-[2-(3R-hydroxy-pyrrolidine-1-carbonyl)-thieno[3,2-b]pyridin-7-yloxy]-2-methyl-indole-1-carboxylic acid prop-2-ynylamide], the “Mouse Cmin, po” value in the series “Mouse PK assay” amounted to 16470 ng/mL. In series [1], this compound had a Ki of 0.148 nM and an inhibition at 0.05 µM of 99%.

Take `C#CCNC(=O)n1c(C)cc2cc(Nc3ccnc4cc(C(=O)N5CC[C@H](OC)C5)sc34)ccc21` [Example 1h, 5-[2-(3S-Methoxy-pyrrolidine-1-carbonyl)-thieno[3,2-b]pyridin-7-ylamino]-2-methyl-indole-1-carboxylic acid prop-2-ynylamide]: the IC50 at PDGFRβ was 57.7 nM. Moreover, in series [1], the Ki stood at 1.23 nM and the inhibition at 0.05 µM amounted to 94%.

Take `CNC(=O)n1c(C)cc2cc(Oc3ccnc4cc(-c5nc(CO)cs5)sc34)ccc21` [Example 3m]: the IC50 at PDGFRβ is 2.48 nM. In series [1], this compound had a Ki of 0.2 nM and an inhibition at 0.05 µM of 83%.

In the series “Mouse PK assay” (female, B6, mouse, plasma, 50 mg/kg), `COC[C@H]1CCCN1C(=O)c1cc2nccc(Oc3ccc4[nH]c(C)c(C(=O)NC5CC5)c4c3)c2s1` [Example 4y, 5-[2-(2R-Methoxymethyl-pyrrolidine-1-carbonyl)-thieno[3,2-b]pyridin-7-yloxy]-2-methyl-1H-indole-3-carboxylic acid cyclopropylamide] gave an AUC of 383 ng·h/mL. Besides, the Cmax in the series “Mouse PK assay” (female, B6, mouse, plasma, 50 mg/kg, p.o., 50 mg/kg, read-out: Mouse Cmax, po ng-h/mL) was found to be 265 ng/mL. Moreover, in the series “Mouse PK assay”, the “Mouse Cmin, po” value was determined as 11 ng/mL. In series [1], affinity was put at a Ki of 24 nM and the inhibition at 0.05 µM came out at 10%.

With `C#CCNC(=O)n1c(C)cc2c(F)c(Oc3ccnc4cc(C(=O)N5CC[C@@H](OC)C5)sc34)ccc21` [Example 5o, 4-Fluoro-5-[2-((R)-3-methoxy-pyrrolidine-1-carbonyl)-thieno[3,2-b]pyridin-7-yloxy]-2-methyl-indole-1-carboxylic acid prop-2-ynylamide], at PDGFRβ, the IC50 came out at 3.65 nM. In series [1], this compound came in with a Ki of 0.09 nM and an inhibition at 0.05 µM of 99%.

As to `CNC(=O)n1c(C)cc2cc(Nc3ccnc4cc(C(=O)N5CC(F)[C@H](O)C5)sc34)ccc21` (stereo partly drawn) [Example 7b, 5-[(2-{[(4R)-3-Fluoro-4-hydroxypyrrolidin-1-yl]carbonyl}thieno[3,2-b]pyridin-7-yl)amino]-N,2-dimethyl-1H-indole-1-carboxamide], the IC50 at PDGFRβ is greater than 1000 nM. Moreover, in series [1], the Ki turned out to be 0.406 nM and the inhibition at 0.05 µM was determined as 95%.

In series [1], `CCCNC(=O)n1c(C)cc2cc(Oc3ccnc4cc(C(=O)N5C[C@H](O)[C@@H](O)C5)sc34)ccc21` [Example 8f, 5-[(2-{[(3S,4S)-3,4-Dihydroxypyrrolidin-1-yl]carbonyl}thieno[3,2-b]pyridin-7-yl)oxy]-2-methyl-N-propyl-1H-indole-1-carboxamide] had a Ki of 0.35 nM and an inhibition at 0.05 µM of 99%.

In series [1], `CNC(=O)n1c(C)cc2cc(Oc3ccnc4cc(C(=O)N5CC(F)[C@@H](OC)C5)sc34)ccc21` (stereo partly drawn) [Example 8j, 5-[(2-{[(4S)-3-Fluoro-4-methoxypyrrolidin-1-yl]carbonyl}thieno[3,2-b]pyridin-7-yl)oxy]-N,2-dimethyl-1H-indole-1-carboxamide] came in with a Ki of 0.142 nM and an inhibition at 0.05 µM of 99%.

Turning to `CO[C@H]1CCN(C(=O)c2cc3nccc(Oc4ccc5c(c4)cc(C)n5C(=O)NCCCCO)c3s2)C1` [Example 9a, 5-[2-(3S-Methoxy-pyrrolidine-1-carbonyl)-thieno[3,2-b]pyridin-7-yloxy]-2-methyl-indole-1-carboxylic acid (4-hydroxy-butyl)-amide], in series [1], the Ki amounted to 0.521 nM and the inhibition at 0.05 µM was 89%.

In series [1], `CCC(=O)n1c(C)cc2cc(Oc3ccnc4cc(C(=O)N5CC[C@H](O)C5)sc34)ccc21` [Example 10b, (3S)-1-({7-[(2-Methyl-1-propionyl-1H-indol-5-yl)oxy]thieno[3,2-b]pyridin-2-yl}carbonyl)pyrrolidin-3-ol] registered a Ki of 2.72 nM and an inhibition at 0.05 µM of 90%.

On to `CCOC(=O)c1cc2ncnc(Nc3ccc4c(c3)cc(C)n4C(=O)NC)c2s1` [Example 11a, 4-(2-Methyl-1-methylcarbamoyl-1H-indol-5-ylamino)-thieno[3,2-b]pyrimidine-6-carboxylic acid ethyl ester], for which, in series [1], the Ki turned out to be 37.8 nM and the inhibition at 0.05 µM came to 20%.

In series [1], `CNC(=O)n1c(C)cc2cc(Nc3ncnc4cc(C(=O)N5CCC[C@H]5COC)sc34)ccc21` [Example 11b, 5-[6-(2-Methoxymethyl-pyrrolidine-1-carbonyl)-thieno[3,2-b]pyrimidin-4-ylamino]-2-methyl-indole-1-carboxylic acid methylamide] had a Ki of 28.8 nM and an inhibition at 0.05 µM of 18%.

In series [1], `CCOC(=O)c1cc2c(Nc3ccc4c(c3)cc(C)n4C(=O)NC)ncnc2s1` [Example 12a, 4-(2-Methyl-1-methylcarbamoyl-1H-indol-5-ylamino)-thieno[2,3-b]pyrimidine-6-carboxylic acid ethyl ester] came in with a Ki of 240 nM and an inhibition at 0.05 µM of 0%.

`CCOC(=O)c1cc2c(Oc3ccc4c(c3)cc(C)n4C(=O)NC)ncnc2s1` [Example 12c, 4-(2-Methyl-1-methylcarbamoyl-1H-indol-5-yloxy)-thieno[2,3-b]pyrimidine-6-carboxylic acid ethyl ester]: in series [1], the affinity corresponds to a Ki of 34.3 nM and at 0.05 µM the inhibition was 14%.
